Source: ChEMBL document CHEMBL1128305, “Metabotropic glutamate receptors: novel targets for drug development” (J Med Chem, 1995)
pEC50: −log10 of the molar value. Several values for one entry are separate records, joined by “and”; a condition that tells them apart may be missing. Equal values may be shown once.

What was measured:
[1] = biological target: Metabotropic glutamate receptor 2 (Homo sapiens, UniProt Q14416); assay: Concentration for half maximal activation of metabotropic glutamate mGluR2 in human
Metabotropic glutamate receptor 2 (Homo sapiens, UniProt Q14416), sequence (Q14416 whole entry): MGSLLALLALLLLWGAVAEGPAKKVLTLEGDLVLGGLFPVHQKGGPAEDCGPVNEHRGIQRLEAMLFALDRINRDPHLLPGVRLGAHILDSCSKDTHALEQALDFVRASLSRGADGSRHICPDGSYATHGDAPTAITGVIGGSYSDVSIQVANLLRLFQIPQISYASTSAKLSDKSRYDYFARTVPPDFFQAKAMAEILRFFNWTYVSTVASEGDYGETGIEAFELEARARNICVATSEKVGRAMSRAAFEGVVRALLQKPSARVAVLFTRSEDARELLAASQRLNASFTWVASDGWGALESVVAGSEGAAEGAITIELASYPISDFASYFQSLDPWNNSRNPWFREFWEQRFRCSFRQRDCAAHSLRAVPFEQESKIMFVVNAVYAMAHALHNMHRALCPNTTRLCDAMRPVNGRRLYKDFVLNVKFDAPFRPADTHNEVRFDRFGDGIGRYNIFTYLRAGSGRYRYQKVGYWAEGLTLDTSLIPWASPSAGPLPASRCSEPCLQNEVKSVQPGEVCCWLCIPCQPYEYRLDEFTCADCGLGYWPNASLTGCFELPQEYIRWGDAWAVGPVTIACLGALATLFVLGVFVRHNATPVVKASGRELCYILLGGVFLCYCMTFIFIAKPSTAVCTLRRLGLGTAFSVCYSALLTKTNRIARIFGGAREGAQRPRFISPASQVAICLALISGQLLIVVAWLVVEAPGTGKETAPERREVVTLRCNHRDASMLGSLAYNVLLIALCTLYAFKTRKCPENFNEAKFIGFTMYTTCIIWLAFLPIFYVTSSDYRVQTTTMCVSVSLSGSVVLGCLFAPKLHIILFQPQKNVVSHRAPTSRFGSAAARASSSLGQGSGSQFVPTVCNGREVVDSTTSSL

[2] = biological target: Metabotropic glutamate receptor 2 (Rattus norvegicus, UniProt P31421); assay: Concentration for half maximal activation of metabotropic glutamate mGluR2 in rat
[3] = biological target: Metabotropic glutamate receptor 4 (Rattus norvegicus, UniProt P31423); assay: Concentration for half maximal activation of metabotropic glutamate mGluR4a in rat
Metabotropic glutamate receptor 4 (Rattus norvegicus, UniProt P31423), sequence (P31423 whole entry): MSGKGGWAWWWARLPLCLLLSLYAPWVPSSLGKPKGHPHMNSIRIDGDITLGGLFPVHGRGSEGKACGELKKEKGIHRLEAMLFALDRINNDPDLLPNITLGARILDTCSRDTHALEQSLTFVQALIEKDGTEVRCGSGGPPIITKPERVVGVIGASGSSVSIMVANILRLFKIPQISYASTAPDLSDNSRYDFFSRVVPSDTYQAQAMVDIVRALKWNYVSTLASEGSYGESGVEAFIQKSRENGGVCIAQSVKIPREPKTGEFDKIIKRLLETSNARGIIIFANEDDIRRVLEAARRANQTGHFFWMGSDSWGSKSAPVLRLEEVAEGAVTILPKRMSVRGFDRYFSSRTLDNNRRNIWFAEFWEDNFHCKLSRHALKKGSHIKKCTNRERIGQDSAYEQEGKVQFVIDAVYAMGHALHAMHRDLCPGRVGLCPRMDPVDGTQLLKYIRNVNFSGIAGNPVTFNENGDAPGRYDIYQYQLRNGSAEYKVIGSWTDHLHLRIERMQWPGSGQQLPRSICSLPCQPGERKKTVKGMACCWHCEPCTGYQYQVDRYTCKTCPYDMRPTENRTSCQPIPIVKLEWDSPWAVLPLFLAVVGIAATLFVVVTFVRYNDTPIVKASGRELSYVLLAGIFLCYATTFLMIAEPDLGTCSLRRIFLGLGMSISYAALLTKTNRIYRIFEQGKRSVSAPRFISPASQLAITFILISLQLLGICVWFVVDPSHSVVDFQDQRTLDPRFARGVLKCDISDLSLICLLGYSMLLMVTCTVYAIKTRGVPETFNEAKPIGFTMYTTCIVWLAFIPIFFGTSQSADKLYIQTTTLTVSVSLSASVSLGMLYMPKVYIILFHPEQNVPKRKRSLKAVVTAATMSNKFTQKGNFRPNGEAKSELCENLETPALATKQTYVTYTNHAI

[4] = biological target: Metabotropic glutamate receptor 3 (Rattus norvegicus, UniProt P31422); assay: Concentration for half maximal activation of metabotropic glutamate mGluR3 in rat
[5] = biological target: T1, Metabotropic glutamate receptor 1 (Rattus norvegicus, UniProt P23385); assay: Concentration for half maximal activation of metabotropic glutamate mGluR1a in rat
T1 sequence (P23385 whole entry): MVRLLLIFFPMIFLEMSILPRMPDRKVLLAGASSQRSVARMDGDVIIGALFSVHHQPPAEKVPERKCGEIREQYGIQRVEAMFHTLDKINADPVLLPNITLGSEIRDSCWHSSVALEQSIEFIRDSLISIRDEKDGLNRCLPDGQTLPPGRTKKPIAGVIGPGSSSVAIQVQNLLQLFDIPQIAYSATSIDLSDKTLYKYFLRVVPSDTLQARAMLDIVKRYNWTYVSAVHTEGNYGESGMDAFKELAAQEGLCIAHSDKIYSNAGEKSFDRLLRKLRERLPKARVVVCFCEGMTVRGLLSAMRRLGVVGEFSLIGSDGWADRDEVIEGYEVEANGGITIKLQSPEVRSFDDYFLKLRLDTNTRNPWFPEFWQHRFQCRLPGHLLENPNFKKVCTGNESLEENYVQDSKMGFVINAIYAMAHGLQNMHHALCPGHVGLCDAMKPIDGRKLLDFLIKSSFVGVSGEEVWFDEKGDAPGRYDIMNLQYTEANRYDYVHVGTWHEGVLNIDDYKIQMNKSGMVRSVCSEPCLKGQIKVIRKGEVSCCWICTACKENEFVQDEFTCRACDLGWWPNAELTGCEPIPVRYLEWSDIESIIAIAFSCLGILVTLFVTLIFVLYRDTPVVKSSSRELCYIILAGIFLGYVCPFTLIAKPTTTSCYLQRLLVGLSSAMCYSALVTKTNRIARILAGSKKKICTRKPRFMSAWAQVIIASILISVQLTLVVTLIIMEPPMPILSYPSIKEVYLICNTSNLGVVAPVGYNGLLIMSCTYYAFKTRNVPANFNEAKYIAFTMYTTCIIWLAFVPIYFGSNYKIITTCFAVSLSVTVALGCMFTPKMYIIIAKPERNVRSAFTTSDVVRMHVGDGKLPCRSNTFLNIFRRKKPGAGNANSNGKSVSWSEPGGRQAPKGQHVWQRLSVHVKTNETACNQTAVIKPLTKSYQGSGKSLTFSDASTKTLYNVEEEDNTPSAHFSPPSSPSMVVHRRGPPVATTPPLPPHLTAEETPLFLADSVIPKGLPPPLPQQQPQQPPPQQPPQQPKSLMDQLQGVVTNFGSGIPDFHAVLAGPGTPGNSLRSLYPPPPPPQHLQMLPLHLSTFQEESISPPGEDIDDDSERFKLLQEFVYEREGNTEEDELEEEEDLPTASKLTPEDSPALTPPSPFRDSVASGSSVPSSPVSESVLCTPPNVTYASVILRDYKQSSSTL

[6] = biological target: Metabotropic glutamate receptor 7 (Homo sapiens, UniProt Q14831); assay: Concentration for half maximal activation of metabotropic glutamate mGluR7 in human
[7] = biological target: Metabotropic glutamate receptor 6 (Rattus norvegicus, UniProt P35349); assay: Concentration for half maximal activation of metabotropic glutamate mGluR6 in rat
[8] = biological target: Metabotropic glutamate receptor 8 (Mus musculus, UniProt P47743); assay: Concentration for half maximal activation of metabotropic glutamate mGluR8 in mouse; assay type: single protein
Metabotropic glutamate receptor 8, sequence (P47743 whole entry): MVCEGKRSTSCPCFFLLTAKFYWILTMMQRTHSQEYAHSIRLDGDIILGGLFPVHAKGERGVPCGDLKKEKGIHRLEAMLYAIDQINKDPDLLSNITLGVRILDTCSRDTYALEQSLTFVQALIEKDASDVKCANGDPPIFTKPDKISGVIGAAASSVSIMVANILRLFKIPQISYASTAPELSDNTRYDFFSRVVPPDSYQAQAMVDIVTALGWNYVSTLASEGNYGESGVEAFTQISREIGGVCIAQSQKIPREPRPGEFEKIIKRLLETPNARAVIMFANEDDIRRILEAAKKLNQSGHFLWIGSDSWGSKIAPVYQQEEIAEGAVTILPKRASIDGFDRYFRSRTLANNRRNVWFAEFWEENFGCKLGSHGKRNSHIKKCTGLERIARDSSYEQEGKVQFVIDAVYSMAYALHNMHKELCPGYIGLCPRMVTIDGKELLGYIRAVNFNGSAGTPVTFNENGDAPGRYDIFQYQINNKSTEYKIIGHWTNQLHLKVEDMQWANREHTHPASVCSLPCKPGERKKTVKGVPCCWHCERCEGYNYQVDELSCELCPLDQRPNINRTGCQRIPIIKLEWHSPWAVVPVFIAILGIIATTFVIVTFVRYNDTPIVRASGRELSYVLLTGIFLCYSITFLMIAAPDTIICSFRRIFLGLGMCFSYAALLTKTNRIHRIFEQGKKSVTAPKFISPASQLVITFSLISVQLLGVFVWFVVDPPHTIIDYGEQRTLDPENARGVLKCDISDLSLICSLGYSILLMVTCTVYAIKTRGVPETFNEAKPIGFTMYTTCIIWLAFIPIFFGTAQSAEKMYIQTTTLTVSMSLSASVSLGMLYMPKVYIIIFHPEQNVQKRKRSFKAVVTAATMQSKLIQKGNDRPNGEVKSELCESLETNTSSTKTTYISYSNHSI

[9] = biological target: T1, Metabotropic glutamate receptor 1; assay: Concentration for half maximal activation of metabotropic glutamate mGluR1c in rat
[10] = biological target: Metabotropic glutamate receptor 7 (Rattus norvegicus, UniProt P35400); assay: Concentration for half maximal activation of metabotropic glutamate mGluR7 in rat
[11] = biological target: Metabotropic glutamate receptor 4 (Homo sapiens, UniProt Q14833); assay: Concentration for half maximal activation of metabotropic glutamate mGluR4a in human
Metabotropic glutamate receptor 4 (Homo sapiens, UniProt Q14833), sequence (Q14833 whole entry): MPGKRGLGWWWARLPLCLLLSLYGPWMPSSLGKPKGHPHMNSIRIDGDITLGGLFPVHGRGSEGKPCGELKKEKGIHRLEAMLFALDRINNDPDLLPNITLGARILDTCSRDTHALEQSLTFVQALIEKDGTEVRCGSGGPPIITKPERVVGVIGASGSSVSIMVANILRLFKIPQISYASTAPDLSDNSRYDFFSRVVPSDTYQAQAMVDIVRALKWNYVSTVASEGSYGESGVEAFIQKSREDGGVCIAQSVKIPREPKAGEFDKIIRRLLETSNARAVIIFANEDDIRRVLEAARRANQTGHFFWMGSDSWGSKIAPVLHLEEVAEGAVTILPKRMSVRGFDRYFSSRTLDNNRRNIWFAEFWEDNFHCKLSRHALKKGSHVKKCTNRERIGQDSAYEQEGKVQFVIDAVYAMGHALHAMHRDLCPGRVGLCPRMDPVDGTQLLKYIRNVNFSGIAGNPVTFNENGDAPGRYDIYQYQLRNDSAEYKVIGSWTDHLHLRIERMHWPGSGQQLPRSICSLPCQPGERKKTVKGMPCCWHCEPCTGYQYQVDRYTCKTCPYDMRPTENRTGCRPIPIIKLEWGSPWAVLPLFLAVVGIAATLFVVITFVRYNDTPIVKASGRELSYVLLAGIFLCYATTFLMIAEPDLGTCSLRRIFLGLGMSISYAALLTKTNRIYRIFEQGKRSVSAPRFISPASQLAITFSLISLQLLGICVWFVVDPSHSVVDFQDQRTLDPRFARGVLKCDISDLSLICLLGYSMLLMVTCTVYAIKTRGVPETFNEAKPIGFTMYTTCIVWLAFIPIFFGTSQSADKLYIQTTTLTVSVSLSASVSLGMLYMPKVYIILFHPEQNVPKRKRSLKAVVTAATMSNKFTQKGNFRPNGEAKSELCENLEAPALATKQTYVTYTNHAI

[12] = biological target: T2, Metabotropic glutamate receptor 5 (Rattus norvegicus, UniProt P31424); assay: Concentration for half maximal activation of metabotropic glutamate mGluR5a in rat
[13] = biological target: T2, Metabotropic glutamate receptor 5; assay: Concentration for half maximal activation of metabotropic glutamate mGluR5b in rat
[14] = biological target: T1, Metabotropic glutamate receptor 1; assay: Concentration for half maximal activation of metabotropic glutamate mGluR1b in rat
[15] = biological target: Metabotropic glutamate receptor 5 (Homo sapiens, UniProt P41594); assay: Concentration for half maximal activation of metabotropic glutamate mGluR5a in human

Compound | pEC50 [1] | pEC50 [2] | pEC50 [3] | pEC50 [4] | pEC50 [5] | pEC50 [6] | pEC50 [7] | pEC50 [8] | pEC50 [9] | pEC50 [10] | pEC50 [11] | pEC50 [12] | pEC50 [13] | pEC50 [14] | pEC50 [15]
N[C@H](C(=O)O)[C@H]1C[C@@H]1C(=O)O | 6.42 | 6.12 | – | – | – | – | – | – | – | – | – | – | – | – | –
N[C@H](C(=O)O)C1[C@@H](C(=O)O)[C@@H]1C(=O)O (stereo partly specified) | – | 6.52 | < 3.00 | 6.52 | < 3.00 | – | – | – | – | – | – | – | – | – | –
N[C@@H](CCP(=O)(O)O)C(=O)O | < 3.00 | < 3.00 | 6.30 and 5.92 | – | – | 3.70 | 6.05 | 6.40 | < 3.00 | 3.80 and 3.30 | 6.70 | – | – | – | –
N[C@@]1(C(=O)O)CC[C@@H](C(=O)O)C1 | 4.92 | 5.30 and 5.11 | < 4.00 and 4.41 | 5.10 | – | < 3.00 | < 3.70 | < 4.00 | – | < 3.00 | – | 4.30 | – | – | –
N[C@@H](COP(=O)(O)O)C(=O)O [DEXFOSFOSERINE] | – | – | 5.40 | – | – | > 3.70 | 5.57 | – | – | 3.80 | 5.89 | – | – | – | –
N[C@@H](CCC(=O)O)C(=O)O [GLUTAMIC ACID] | – | – | 5.30 and 5.49 | 5.52 | – | < 3.30 | 4.80 | 7.66 | – | 3.00 and 2.89 | – | – | – | – | –
N[C@H](C(=O)O)c1cc(=O)[nH]o1 [IBOTENIC ACID] | – | – | 3.23 | 5.00 | 5.22 | – | 3.00 | < 4.00 | 4.22 | – | – | 5.00 and 5.10 | 5.10 | 4.36 | –
N[C@@H](Cn1oc(=O)[nH]c1=O)C(=O)O [QUISQUALATE] | < 3.00 | < 3.00 | < 4.00 and 3.89 | 4.40 | – | < 3.00 | 3.00 | < 4.00 | – | < 3.00 | < 3.30 | 6.52 and 6.70 | 6.70 | – | 6.82
